Test results taken from patent US7981920B2, “Addition salts of angiotensin-converting enzyme inhibitors with no donor acids, a process for their preparation and pharmaceutical compositions containing them” (Les Laboratoires Servier, priority 2007, dated 2011).

Tests used:
[1] = target: T1, Angiotensin 1-Converting Enzyme (Rattus norvegicus, UniProt P47820); experiment: Activity inhibiting angiotensin 1-converting enzyme in vivo: hypertensive response to angiotensin I in anaesthetised rats; conditions: dose of 0.1 mg/kg, given 60 minutes prior to anaesthesia, angiotensin I i.v. 1.5 μg/kg
T1 construct: from tissue; host or cells: whole living rat (in vivo; endogenous enzyme)
T1 sequence (P47820 36-1313): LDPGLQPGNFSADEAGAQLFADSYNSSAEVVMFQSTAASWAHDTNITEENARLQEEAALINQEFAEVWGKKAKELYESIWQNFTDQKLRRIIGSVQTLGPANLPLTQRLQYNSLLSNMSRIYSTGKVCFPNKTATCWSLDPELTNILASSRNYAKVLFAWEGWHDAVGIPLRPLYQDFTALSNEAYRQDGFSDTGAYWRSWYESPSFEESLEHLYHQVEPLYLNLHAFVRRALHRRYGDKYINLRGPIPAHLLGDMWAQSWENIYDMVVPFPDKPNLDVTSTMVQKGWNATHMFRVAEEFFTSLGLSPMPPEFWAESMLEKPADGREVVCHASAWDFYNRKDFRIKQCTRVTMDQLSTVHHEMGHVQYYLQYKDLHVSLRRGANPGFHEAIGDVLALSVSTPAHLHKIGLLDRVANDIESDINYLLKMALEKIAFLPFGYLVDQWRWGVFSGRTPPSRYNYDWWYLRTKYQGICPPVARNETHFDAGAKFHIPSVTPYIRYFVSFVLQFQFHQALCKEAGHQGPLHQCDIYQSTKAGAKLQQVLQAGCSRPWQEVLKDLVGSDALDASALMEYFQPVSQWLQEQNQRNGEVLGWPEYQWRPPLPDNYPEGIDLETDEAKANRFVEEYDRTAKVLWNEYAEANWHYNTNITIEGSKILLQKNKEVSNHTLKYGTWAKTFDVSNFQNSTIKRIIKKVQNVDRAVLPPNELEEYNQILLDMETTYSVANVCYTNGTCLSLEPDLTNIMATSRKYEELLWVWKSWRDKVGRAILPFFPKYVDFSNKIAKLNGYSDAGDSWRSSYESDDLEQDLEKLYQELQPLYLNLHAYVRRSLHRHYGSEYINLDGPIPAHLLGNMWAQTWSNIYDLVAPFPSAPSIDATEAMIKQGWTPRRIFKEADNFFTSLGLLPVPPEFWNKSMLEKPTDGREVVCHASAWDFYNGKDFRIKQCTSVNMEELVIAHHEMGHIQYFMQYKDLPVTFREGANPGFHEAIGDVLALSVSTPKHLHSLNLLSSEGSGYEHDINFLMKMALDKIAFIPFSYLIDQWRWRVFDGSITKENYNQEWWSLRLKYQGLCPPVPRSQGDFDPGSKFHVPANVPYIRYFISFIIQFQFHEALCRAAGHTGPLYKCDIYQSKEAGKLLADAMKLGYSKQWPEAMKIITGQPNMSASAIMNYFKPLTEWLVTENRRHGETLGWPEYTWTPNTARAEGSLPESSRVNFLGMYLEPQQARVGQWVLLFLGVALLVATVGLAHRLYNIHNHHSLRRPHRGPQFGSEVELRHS
Experimental: Rats are anaesthetised with pentobarbital and placed under artificial respiration, and the average arterial pressure is measured by a catheter that has been placed in the femoral artery and is connected to a pressure sensor. The vagus nerves are divided into sections and mecamilamine (sympathetic ganglion blocker) is injected i.v. at 1.5 mg/kg. After stabilisation, angiotensin I is injected i.v. at 1.5 μg/kg.
The maximum hypertensive response to angiotensin I is measured in rats that, 60 minutes prior to anaesthesia, have received by the oral route either Senegal gum alone (control group), or the compound under test in Senegal gum. The inhibitory effect is determined as a percentage from the response to angiotensin I compared with the control group.

[2] = tested on: Aorta rings without endothelium; experiment: NO donor activity in vitro: relaxation of noradrenaline-contracted aorta rings; assay type: cell-based; conditions: stable contraction induced by noradrenaline (0.1-0.3 μM), read-out: IC50 (dose that inhibits the maximum effect by 50%), relaxing effect
Experimental: Aorta rings without endothelium are used. After a first contraction induced by 60 mM KCl to characterise the sensitivity of the ring, and washing, a stable contraction is induced by noradrenaline (0.1-0.3 μM) in the presence or absence of a guanylate cyclase inhibitor, ODQ (10 μM). A cumulative concentration series is applied and the activity of the product under test is calculated by an IC50 (dose that inhibits the maximum effect by 50%).

| Substance | angiotensin I inhibition (inhibition of maximum hypertensive response to angiotensin I compared with control group) [1] | IC50 [2] |
| --- | --- | --- |
| (2S)-2-[(3-{[5-Oxido-4-(phenylsulphonyl)-1,2,5-oxadiazol-3-yl]-oxy}-propionyl)-amino]-succinic Acid-(2S,3aS,7aS)-1-[(2S)-2-{[(1S)-1-(ethoxycarbonyl)-butyl]-amino}-propionyl]-octahydro-1H-indole-2-carboxylic Acid (1:1) [Example 1] | 85% | 48 nM |
| (2S,3aS,7aS)-1-[(2S)-2-{[(1S)-1-(Ethoxycarbonyl)-butyl]-amino}-propionyl]-octahydro-1H-indole-2-carboxylic acid-{[(3-{[5-oxido-4-(phenylsulphonyl)-1,2,5-oxadiazol-3-yl]-oxy}-propionyl)-amino]-methyl}-phosphonic acid (1:1) [Example 7] | 88% | 47 nM |
